In US20220112225A1, “ANANDAMIDE COMPOUNDS” (priority 2019, published 2022):

Columns and labels:
hMfsd2a [1] = biological target: T1, hMfsd2a (Homo sapiens, UniProt Q8NA29); assay: In vitro Mfsd2a transport, UPLC-MS-MS analysis; assay type: cell-based; settings: transfected HEK293 cells, 50 μM test compound, 1 hour
T1 construct: expressed in transfected cells; host or cells: HEK293
T1 sequence (Q8NA29 1-530 isoform Q8NA29-2): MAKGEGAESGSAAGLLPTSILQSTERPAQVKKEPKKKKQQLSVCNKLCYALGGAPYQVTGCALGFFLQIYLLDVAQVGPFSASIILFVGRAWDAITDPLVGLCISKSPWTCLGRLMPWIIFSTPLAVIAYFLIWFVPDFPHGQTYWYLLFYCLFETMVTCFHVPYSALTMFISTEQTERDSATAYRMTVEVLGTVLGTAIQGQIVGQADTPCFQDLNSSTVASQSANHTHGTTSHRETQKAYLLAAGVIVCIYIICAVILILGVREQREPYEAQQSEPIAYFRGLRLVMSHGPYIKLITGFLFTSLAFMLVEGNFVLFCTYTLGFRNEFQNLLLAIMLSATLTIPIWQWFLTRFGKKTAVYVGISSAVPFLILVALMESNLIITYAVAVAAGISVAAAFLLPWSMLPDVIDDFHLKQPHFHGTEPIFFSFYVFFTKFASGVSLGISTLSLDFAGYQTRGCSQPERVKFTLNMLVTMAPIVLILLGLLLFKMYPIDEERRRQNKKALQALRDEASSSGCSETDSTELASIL
Description: (§1) The assay was conducted in a low throughput 6-well format with HEK293 cells prepared and then transfected in duplicate wells with plasmids containing either the wildtype (WT) version of hMfsd2a, the D97A mutant version, or an empty vector as control. Uptake into the ceils was assessed by both thin-layer chromatography (TLC) and ultrahigh performance liquid chromatography hyphenated mass spectrometry.
(§2) HEK293 cells were seeded at 6.25×10^5 per 6-well in 2 mL of DMEM with 10% FBS and 1% penicillin-streptomycin (P/S) media (Sigma) and incubated overnight at 37° C. in 5% CO2. Cells were checked for confluency the next morning. On a per well basis the following lipid mix was generated, 6 μL of Lipofectamine 2000 was added dropwise to 200 μL of OptiMEM, this was left to stand for 5 minutes at room temperature (RT). 1 μg of hMfsd2a WT, D97A or empty plasmid was prepared in 200 μL of OptiMEM as appropriate for each well; the Lipofectamine 2000 in OptiMEM solution was then added dropwise to a total volume of 400 μL (this can be scaled to support the number of wells/plates to be assayed). This transfection preparation was then incubated at RT for 20 minutes. DMEM with 10% FBS and no P/S media was warmed to 37° C., the HEK293 plate media was changed and the cells washed carefully with 1 mL of the warmed DMEM with 10% FBS no P/S media, 1.6 mL of the warmed DMEM with 10% FBS no P/S media was then added to each well. 400 μL of the transfection preparation was then added dropwise to each well as appropriate and the plate was gently swirled in a circular motion. The plate was then incubated overnight at 37° C. in 5% CO2.
(§3) Compound Incubation and Preparation of Analysis Samples Compound stock solutions were prepared in a 12% BSA in PBS solution such that a 40 μL spike into 2 ml, of plain DMEM would yield a concentration of 50 μM of test compound (the compound treated media). Remaining compound stock solution in 12% BSA in PBS was frozen at −20° C. to allow for media stability testing. The HEK293 6-well plate was removed from the incubator and the wells gently rinsed with 1 mL of plain DMEM that had been prewarmed to 37° C. 2 mL of the compound treated media was then added to each well. A 100 μL sample of the compound treated media was sampled to represent a T=0 h sample; 5 μL of this sample (the remainder was reserved and frozen in case of re-analysis being required) was diluted with 45 μL of DMEM and crashed with 50 μL MeCN in a 96-well plate which was sealed and kept on ice. The HEK293 6-well plate was then incubated at 37° C. in 5% CO2 for 1 hour, the plate was then removed from the incubator and a 100 μL sample of media taken from each well to represent a T=1 h sample; 5 μL of this sample (the remainder was reserved and frozen in case of re-analysis being required) was diluted with 45 μL of DMEM and crashed with 50 μL MeCN into the 96-well plate which was re-sealed and stored at −20° C. The remaining media was then removed from the HEK293 6-well plate, the wells were gently rinsed twice with 1 mL of 0.5% BSA in DMEM, the media was then removed and the 6-well plate allowed to dry completely at RT. 1 ml of 3:2 Hexane:Isopropanol (HIP) was added to each well in a fume cupboard and the plate allowed to stand for 30 minutes at RT without shaking. The HIP solution was then transferred to 2 mL Eppendorf tubes, and the process was repeated with a second 1 mL aliquot of HIP and the two aliquots combined. The HIP samples were then dried down under a nitrogen stream.
HIP samples prepared as described above were reconstituted in 100 μL of MeCN, vortex mixed and inverted multiple times to ensure all surfaces of the Eppendorf tube were rinsed with the MeCN and finally pulse centrifuged. […]

hMfsd2a [2] = biological target: T1, hMfsd2a; assay: In vitro Mfsd2a transport, thin layer chromatography (TLC) analysis; assay type: cell-based; settings: transfected HEK293 cells, 50 μM test compound, 1 hour, iodine and cupric acetate stain
Description: as §1, §2, §3
Silica gel plates were prepared in a fume cupboard by initially drawing a line 1.5 cm from the bottom edge of the plate and then drawing sample lanes with a width of 1 cm and a separation of 0.5 cm between lanes. TLC buffer for phospholipids was prepared as a 31:62:7 solvent mix of Methanol:Chloroform:Ammonium Hydroxide. Plates were pre-run in a humid chamber containing 200 mL of the TLC buffer until the solvent front was 1.5 cm from the plate edge, the plate was then allowed to dry. […]

[3] = In vitro brain homogenate stability, mouse; assay type: in vitro ADME; settings: for half-life at 1 μM: 37° C., test compound at 1 μM, read-out: Mouse t1/2; for Clearance in brain homogenate stability study (in words): one hour incubation, increasing formation of Compound 2
Description: (§4) Fresh rodents brains were snap frozen immediately after collection and the assay performed on the same day. Brains were pre-incubated at 37° C. before being spiked with test compound at 1 μM. Samples were collected across 6 time points (0, 10, 20, 30, 45 and 60 minutes) and crashed in cold acetonitrile containing an internal standard (Leucine Enkephalin) and kept on ice until all samples had been collected. The samples were then shaken and centrifuged. 100 μL of supernatant was transferred to a plate containing 50 μL of MilliQ water and mixed. These plates were analyzed by LC-MS/MS over the 6 time points, where the percentage of test compound remaining was calculated using the peak area of the initial timepoint (T=0 minutes) as 100%. The natural log of the percentage remaining was then calculated. The natural log of the percentage remaining versus time (minutes) was plotted on a graph and the gradient of this graph was used to calculate the elimination rate constant (K), The half-life (t1/2) of test compound was calculated using the natural log of 2 divided by the elimination rate constant. The percentage of Compound 2 formed is reported below in Tables 4-6. FIGS. 9A-9F show results of the brain homogenate stability conducted with representative compounds of the Examples.

[4] = In vitro brain homogenate stability, rat; assay type: in vitro ADME; settings: for half-life at 1 μM: 37° C., test compound at 1 μM, read-out: Rat t1/2; for Clearance in brain homogenate stability study (in words): one hour incubation, increasing formation of Compound 2
Description: as §4

[5] = Brain homogenate re-analysis for Compound 2 after PO Compound 3 at 20 mg/kg; assay type: in vivo; settings: after dosing Compound 3
Description: Re-analysis of the brain tissues harvested above (see Example 4) was conducted according to the following procedures and the data are shown in Table 3. • 1. 100 μL of brain homogenate was transferred to a 2 mL square matrix deep well plate, • 2. 300 μL acetonitrile (ACN) containing IS was dispensed on to the samples and mixed on a shaker. • 3. The samples were centrifuged for 15 min at 3500 rpm. • 4. 300 μL supernatant was transferred in to a fresh 2 mL square matrix deep well plate. • 5. Samples were concentrated using nitrogen then reconstituted in 80 μL of 50:50 ACN:MilliQ water and shaken on a plate shaker. • 6. Samples were then analyzed by LC-MS-MS.

[6] = PO JVC rat terminal PK study at 20 mg/kg (tissue distribution); assay type: in vivo; settings: rat brain after Compound 3 at 20 mg/kg PO, before the more sensitive method
Description: Compound 3 was orally dosed at 20 mg/kg to a group of nine, jugular vein cannulated, individually housed male Sprague Dawley rats that were fasted overnight and fed 4 h post-dose to assess its tissue distribution profile. Dosing was performed with 5 mL/kg dosing volumes with 5% DMSO, 95% water used as a dosing vehicle. Terminal blood samples (>230 μL) were taken from groups of 3 animals at each of 3 time-points post dose (1 h, 2 h, and 4 h) by cardiac puncture under CO2 into heparinised Eppendorf tubes (containing 5 μL heparin) on ice containing an equal quantity of water. Two 100 μL aliquots were then placed in duplicate 96 well plates on dry ice. Immediately after blood sampling, brain and eye pair samples were excised, weighed, rinsed, blotted, and snap frozen in liquid N2. Samples were stored in the freezer at −20° C. until bioanalysis.
Tissue samples were weighed and a volume of water 3 times the mass added to samples before homogenization. In the case of eyeballs the lens could not be homogenized, but all other tissues homogenized. The resulting data (tissue distribution parameters) are shown below in Table 2.

Row | SMILES | Transport via Mfsd2a: concentration in HIP samples from WT cells compared with D97A mutant Mfsd2a and/or empty vector cells (hMfsd2a [1]) | Transport via Mfsd2a: TLC band intensity in WT cells compared with D97A mutant Mfsd2a and/or empty vector cells (hMfsd2a [2]) | half-life at 1 μM [3] [h] | Clearance in brain homogenate stability study (in words) [3] | half-life at 1 μM [4] [h] | Clearance in brain homogenate stability study (in words) [4] | Detection of Compound 2 in the brain, in-vivo rat CNS penetration data using Compound 3 [5] | Detection of Compound 2 in brain tissues, first analysis [6]
1 | CCCCC/C=C\C/C=C\C/C=C\C/C=C\CCCC(=O)NOC(C)(O)COP(=O)([O-])OCC[N+](C)(C)C (stereo not shown) [Compound 20, 2-hydroxy-2-(((5Z,8Z,11Z,14Z)-icosa-5,8,11,14-tetraenamido)oxy)propyl (2-(trimethylammonio)ethyl) phosphate] | transported via Mfsd2a | cannot be confirmed if the compound is transported via Mfsd2a |  |  |  |  |  | 
2 | CCCCC/C=C\C/C=C\C/C=C\C/C=C\CCCC(=O)NCCOC(=O)OCCCOP(=O)([O-])OCC[N+](C)(C)C [Compound 7, 3-(((2-((5Z,8Z,11Z,14Z)-icosa-5,8,11,14-tetraenamido)ethoxy)carbonyl)oxy)propyl (2-(trimethylammonio)ethyl) phosphate] | transported via Mfsd2a | transported via Mfsd2a |  |  |  |  |  | 
3 | CCCCC/C=C\C/C=C\C/C=C\C/C=C\CCCC(=O)NCCOC(=O)OCCOP(=O)([O-])OCC[N+](C)(C)C [Compound 6, 2-(((2-((5Z,8Z,11Z,14Z)-icosa-5,8,11,14-tetraenamido)ethoxy)carbonyl)oxy)ethyl (2-(trimethylammonio)ethyl) phosphate] | transported via Mfsd2a | transported via Mfsd2a |  |  |  |  |  | 
4 | CCCCC/C=C\C/C=C\C/C=C\C/C=C\CCCC(=O)NCCOP(=O)(O)OCCN [Compound 4, 2-ammonioethyl (2-((5Z,8Z,11Z,14Z)-icosa-5,8,11,14-tetraenamido)ethyl) phosphate] | transported via Mfsd2a | transported via Mfsd2a | 2 | demonstrated a level of clearance | 1.27 | demonstrated a level of clearance |  | 
5 | CCCCC/C=C\C/C=C\C/C=C\C/C=C\CCCC(=O)NCCOP(=O)(O)OCC(N)C(=O)O (stereo not shown) [Compound 5, 2-ammonio-2-carboxyethyl (2-((5Z,8Z,11Z,14Z)-icosa-5,8,11,14-tetraenamido)ethyl) phosphate] | cannot be confirmed if the compound is transported via Mfsd2a | transported via Mfsd2a | 4.3 | demonstrated a level of clearance | 2.1 | demonstrated a level of clearance |  | 
6 | CCCCC/C=C\C/C=C\C/C=C\C/C=C\CCCC(=O)NCCOC(=O)NCCOP(=O)([O-])OCC[N+](C)(C)C [Compound 8, 2-(((2-((5Z,8Z,11Z,14Z)-icosa-5,8,11,14-tetraenamido)ethoxy)carbonyl)amino)ethyl (2-(trimethylammonio)ethyl) phosphate] | transported via Mfsd2a | transported via Mfsd2a |  |  |  |  |  | 
7 | CCCCC/C=C\C/C=C\C/C=C\C/C=C\CCCC(=O)NCCO [Compound 2, (5Z,8Z,11Z,14Z)—N-(2-hydroxyethyl)icosa-5,8,11,14-tetraenamide, reference compound] |  |  |  |  |  |  | detected in the brain | not detected above the lower limit of quantification
